Measurements published in patent US11130769B2 (Prelude Therapeutics Incorporated, priority 2018, dated 2021).
Where two headings read alike, the source gives them in different places.

Key:
MCL-1 = MCL-1 (Homo sapiens (Human), UniProt Q07820); experiment: Cell free Mcl-1:Bim affinity assay (fluorescence polarization competition); assay type: binding; details: 15 nM MCL-1, 5 nM FITC-Bim, 1 hour at room temperature, read-out: BIM_Ki
How it was run: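 Fluorescence polarization competition: 10-point 3-fold compound dilutions displaced 5 nM FITC-Bim from 15 nM MCL-1 over 1 h at room temperature. Ki was derived from the fitted IC50 using the Nikolovska-Coleska equation, with percent inhibition normalized to DMSO and positive controls.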

H929 cells = experiment: Cell viability assay (H929 10 FBS); assay type: cell-based; details: Homo sapiens, NCI-H929, 24 hours, read-out: H929_10FBS IC50
How it was run: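 ATP-based luminescence (CellTiter-Glo or ATPlite 1 Step, 30-60 min at RT) gauged viability of H929 myeloma cells after 24 h compound treatment at 37 °C. Cells plated at 4000 per well in 10% FBS RPMI 1640 supplemented with pyruvate, HEPES and glucose.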

Chain of MCL-1 (Q07820 whole entry): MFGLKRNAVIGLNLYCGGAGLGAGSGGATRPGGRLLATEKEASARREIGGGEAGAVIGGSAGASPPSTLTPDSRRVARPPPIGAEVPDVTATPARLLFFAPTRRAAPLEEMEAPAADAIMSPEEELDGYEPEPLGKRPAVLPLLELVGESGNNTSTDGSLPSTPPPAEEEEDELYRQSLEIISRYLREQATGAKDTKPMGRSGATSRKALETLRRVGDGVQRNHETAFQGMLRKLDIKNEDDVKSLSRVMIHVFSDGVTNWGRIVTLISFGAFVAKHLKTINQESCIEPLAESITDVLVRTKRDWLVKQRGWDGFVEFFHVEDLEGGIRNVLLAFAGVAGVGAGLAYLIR

Structure (SMILES) | Ki (MCL-1; class symbols) [nM] | IC50 (H929 cells) [nM] | Ki (MCL-1; numeric values) [nM]
CCN1C/C=C/[C@H](O)[C@@H]2CC[C@H]2CN2C[C@@]3(CCCc4cc(Cl)ccc43)COc3ccc(cc32)S(=O)(=O)NC(=O)C1(C)C [Example 219, (3R,6R,7S,8E,22S)-6′-Chloro-7-hydroxy-11-ethyl-12,12-dimethyl-15,15-dioxo-spiro[20-oxa-15-thia-1,11,14-triazatetracyclo[14.7.2.03,6.019,24]pentacosa-8,16,18,24-tetraene-22,1′-tetralin]-13-one] | 1 to 100 | < 500 | 
CN(C)[C@@H]1CCN(C(=O)O[C@H]2/C=C/COC(C)(C)C(=O)NS(=O)(=O)c3ccc4c(c3)N(C[C@@H]3CC[C@H]32)C[C@@]2(CCCc3cc(Cl)ccc32)CO4)C1 [Example 53, [(3R,6R,7S,8E,22S)-6′-Chloro-12,12-dimethyl-13,15,15-trioxo-spiro[11,20-dioxa-15-thia-1,14-diazatetracyclo[14.7.2.03,6.019,24]pentacosa-8,16,18,24-tetraene-22,1′-tetralin]-7-yl] (3R)-3-(dimethylamino)pyrrolidine-1-carboxylate] | < 1 | < 500 | 
CO[C@@H]1CCN(C(=O)O[C@H]2/C=C/COC(C)(C)C(=O)NS(=O)(=O)c3ccc4c(c3)N(C[C@@H]3CC[C@H]32)C[C@@]2(CCOc3cc(Cl)ccc32)CO4)C1 [Example 266, [(3R,6R,7S,8E,22S)-7′-Chloro-12,12-dimethyl-13,155-trioxo-spiro[11,20-dioxa-15-thia-1,14-diazatetracyclo[14.7.2.03,6.019,24]pentacosa-8,16,18,24-tetraene-22,4′-chromane]-7-yl] (3R)-3-methoxypyrrolidine-1-carboxylate] | < 1 | < 500 | 
CN(C)C(=O)O[C@H]1/C=C/CN(C)C(C)(C)C(=O)NS(=O)(=O)c2ccc3c(c2)N(C[C@@H]2CC[C@H]21)C[C@@]1(CCCc2cc(Cl)ccc21)CO3 [Example 44, [(3R,6R,7S,8E,22S)-6′-chloro-11,12,12-trimethyl-13,15,15-trioxo-spiro[20-oxa-15-thia-1,11,14-triazatetracyclo[14.7.2.03,6.019,24]pentacosa-8,16,18,24-tetraene-22,1′-tetralin]-7-yl] N,N-dimethylcarbamate] | < 1 | < 500 | 
CC1(C)OC/C=C/[C@H](OC(=O)N2CCOCC2)[C@@H]2CC[C@H]2CN2C[C@@]3(CCOc4cc(Cl)ccc43)COc3ccc(cc32)S(=O)(=O)NC1=O [Example 248, [(3R,6R,7S,8E,22S)-7′-Chloro-12,12-dimethyl-13,15,15-trioxo-spiro[11,20-dioxa-15-thia-1,14-diazatetracyclo[14.7.2.03,6.019,24]pentacosa-8,16,18,24-tetraene-22,4′-chromane]-7-yl]morpholine-4-carboxylate] | < 1 | > 1000 | 
CC1(C)CN(C(=O)O[C@H]2/C=C/COC(C)(C)C(=O)NS(=O)(=O)c3ccc4c(c3)N(C[C@@H]3CC[C@H]32)C[C@@]2(CCCc3cc(Cl)ccc32)CO4)CCO1 [Example 158, [(3R,6R,7S,8E,22S)-6′-Chloro-12,12-dimethyl-13,15,15-trioxo-spiro[11,20-dioxa-15-thia-1,14-diazatetracyclo[14.7.2.03,6.019,24]pentacosa-8,16,18,24-tetraene-22,1′-tetralin]-7-yl] 2,2-dimethylmorpholine-4-carboxylate] | < 1 | < 500 | 
CNC(=O)O[C@H]1/C=C/CN(C)C(C)(C)C(=O)NS(=O)(=O)c2ccc3c(c2)N(C[C@@H]2CC[C@H]21)C[C@@]1(CCCc2cc(Cl)ccc21)CO3 [Example 203, [(3R,6R,7S,8E,22S)-6′-Chloro-11,12,12-trimethyl-13,15,15-trioxo-spiro[20-oxa-15-thia-1,11,14-triazatetracyclo[14.7.2.03,6.019,24]pentacosa-8,16,18,24-tetraene-22,1′-tetralin]-7-yl] N-methylcarbamate] | < 1 | < 500 | 
CC1(C)OC/C=C/[C@H](OC(=O)N2CCN(CCO)CC2)[C@@H]2CC[C@H]2CN2C[C@@]3(CCCc4cc(Cl)ccc43)COc3ccc(cc32)S(=O)(=O)NC1=O [Example 148, [(3R,6R,7S,8E,22S)-6′-Chloro-12,12-dimethyl-13,15,15-trioxo-spiro[11,20-dioxa-15-thia-1,14-diazatetracyclo[14.7.2.03,6.019,24]pentacosa-8,16,18,24-tetraene-22,1′-tetralin]-7-yl] 4-(2-hydroxyethyl)piperazine-1-carboxylate] | < 1 | < 500 | 
O=C1Cc2cccc(c2)S(=O)(=O)C[C@@H]2CC[C@H]2CN2C[C@@]3(CCCc4cc(Cl)ccc43)COc3ccc(cc32)S(=O)(=O)N1 [Example 98, (3R,6R,24S)-6′-Chloro-8,8,17,17-tetraoxo-spiro[22-oxa-8,17-dithia-1,16-diazapentacyclo[16.7.2.19,13.03,6.021,26]octacosa-9(28),10,12,18(27),19,21(26)-hexaene-24,1′-tetralin]-15-one] | 1 to 100 | > 1000 | 
CCO[C@@H]1CCN(C(=O)O[C@H]2/C=C/COC(C)(C)C(=O)NS(=O)(=O)c3ccc4c(c3)N(C[C@@H]3CC[C@H]32)C[C@@]2(CCCc3cc(Cl)ccc32)CO4)C1 [Example 59, [(3R,6R,7S,8E,22S)-6′-Chloro-12,12-dimethyl-13,15,15-trioxo-spiro[11,20-dioxa-15-thia-1,14-diazatetracyclo[14.7.2.03,6.019,24]pentacosa-8,16,18,24-tetraene-22,1′-tetralin]-7-yl] (3R)-3-ethoxypyrrolidine-1-carboxylate] | < 1 | < 500 | 
CC1(C)OC/C=C/[C@H](OC(=O)NCCN2CCOCC2)[C@@H]2CC[C@H]2CN2C[C@@]3(CCCc4cc(Cl)ccc43)COc3ccc(cc32)S(=O)(=O)NC1=O [Example 180, [(3R,6R,7S,8E,22S)-6′-Chloro-12,12-dimethyl-13,15,15-trioxo-spiro[11,20-dioxa-15-thia-1,14-diazatetracyclo[14.7.2.03,6.019,24]pentacosa-8,16,18,24-tetraene-22,1′-tetralin]-7-yl] N-(2-morpholinoethyl)carbamate] | < 1 | < 500 | 
CC(C)(C)OC(=O)N1CCC[C@H](OC(=O)NS(=O)(=O)c2ccc3c(c2)N(CC2CCC2)CC2(CCCc4cc(Cl)ccc42)CO3)C1 (stereo partly drawn) [Example 23, tert-Butyl (3S)-3-[[6′-chloro-5-(cyclobutylmethyl)spiro[2,4-dihydro-1,5-benzoxazepine-3,1′-tetralin]-7-yl]sulfonylcarbamoyloxy]piperidine-1-carboxylate] |  | > 1000 | 73.6
CN(C)C1CN(C(=O)O[C@H]2/C=C/CN(C)C(C)(C)C(=O)NS(=O)(=O)c3ccc4c(c3)N(C[C@@H]3CC[C@H]32)C[C@@]2(CCCc3cc(Cl)ccc32)CO4)C1 [Example 214, [(3R,6R,7S,8E,22S)-6′-Chloro-11,12,12-trimethyl-13,15,15-trioxo-spiro[20-oxa-15-thia-1,11,14-triazatetracyclo[14.7.2.03,6.019,24]pentacosa-8,16,18,24-tetraene-22,1′-tetralin]-7-yl] 3-(dimethylamino)azetidine-1-carboxylate] | < 1 | < 500 | 
CC1(C)OC/C=C/[C@H](OCCN2CCOCC2)[C@@H]2CC[C@H]2CN2C[C@@]3(CCCc4cc(Cl)ccc43)COc3ccc(cc32)S(=O)(=O)NC1=O [Example 270, (3R,6R,7S,8E,22S)-6′-Chloro-12,12-dimethyl-7-(2-morpholinoethoxy)-15,15-dioxo-spiro[11,20-dioxa-15-thia-1,14-diazatetracyclo[14.7.2.03,6.019,24]pentacosa-8,16,18,24-tetraene-22,1′-tetralin]-13-one] | < 1 | < 500 | 
CC1(C)OC/C=C/[C@H](OC(=O)N2CCC(F)(F)C2)[C@@H]2CC[C@H]2CN2C[C@@]3(CCCc4cc(Cl)ccc43)COc3ccc(cc32)S(=O)(=O)NC1=O [Example 166, [(3R,6R,7S,8E,22S)-6′-Chloro-12,12-dimethyl-13,15,15-trioxo-spiro[11,20-dioxa-15-thia-1,14-diazatetracyclo[14.7.2.03,6.019,24]pentacosa-8,16,18,24-tetraene-22,1′-tetralin]-7-yl] 3,3-difluoropyrrolidine-1-carboxylate] | < 1 | < 500 | 
CC1(C)OC/C=C/[C@H](OC(=O)N2CC(O)C2)[C@@H]2CC[C@H]2CN2C[C@@]3(CCCc4cc(Cl)ccc43)COc3ccc(cc32)S(=O)(=O)NC1=O [Example 153] | < 1 | < 500 | 
CCN1C/C=C/[C@H](OC(=O)N2CCOCC2)[C@@H]2CC[C@H]2CN2C[C@@]3(CCCc4cc(Cl)ccc43)COc3ccc(cc32)S(=O)(=O)NC(=O)C1(C)C [Example 221, [(3R,6R,7S,8E,22S)-6′-Chloro-11-ethyl-12,12-dimethyl-13,15,15-trioxo-spiro[20-oxa-15-thia-1,11,14-triazatetracyclo[14.7.2.03,6.019,24]pentacosa-8,16,18,24-tetraene-22,1′-tetralin]-7-yl]morpholine-4-carboxylate] | < 1 | < 500 | 
CO[C@@H]1/C=C/CN[C@H](C)C(=O)NS(=O)(=O)c2ccc3c(c2)N(C[C@@H]2CC[C@H]21)C[C@@]1(CCCc2cc(Cl)ccc21)CO3 [Example 121, (3R,6R,7R,8E,12R,22S)-6′-Chloro-7-methoxy-12-methyl-15,15-dioxo-spiro[20-oxa-15-thia-1,11,14-triazatetracyclo[14.7.2.03,6.019,24]pentacosa-8,16(25),17,19(24)-tetraene-22,1′-tetralin]-13-one] | 1 to 100 | > 1000 | 
